Measured values: paper PMC10793102 (Acta Pharmaceutica Sinica. B, 2023)
Where two headings read alike, the source gives them in different places.

Experiments:
[1] = test system: FADD−/− Jurkat; assay: Cell viability assay, protection from necroptosis in FADD−/− Jurkat cells; type: cell-based; conditions: Homo sapiens, 16 h
[2] = test system: L929; assay: Cell viability assay, protection from necroptosis in L929 cells; type: cell-based, mouse; conditions: Mus musculus, L929, 16 h
[3] = target: T1, hRIPK1 (Homo sapiens, UniProt Q13546); assay: In vitro RIPK1 kinase activity assay; type: biochemical; conditions: Enzymatic IC50s RIPK1, hRIPK1 enzymatic assay
T1 sequence (Q13546 1-671): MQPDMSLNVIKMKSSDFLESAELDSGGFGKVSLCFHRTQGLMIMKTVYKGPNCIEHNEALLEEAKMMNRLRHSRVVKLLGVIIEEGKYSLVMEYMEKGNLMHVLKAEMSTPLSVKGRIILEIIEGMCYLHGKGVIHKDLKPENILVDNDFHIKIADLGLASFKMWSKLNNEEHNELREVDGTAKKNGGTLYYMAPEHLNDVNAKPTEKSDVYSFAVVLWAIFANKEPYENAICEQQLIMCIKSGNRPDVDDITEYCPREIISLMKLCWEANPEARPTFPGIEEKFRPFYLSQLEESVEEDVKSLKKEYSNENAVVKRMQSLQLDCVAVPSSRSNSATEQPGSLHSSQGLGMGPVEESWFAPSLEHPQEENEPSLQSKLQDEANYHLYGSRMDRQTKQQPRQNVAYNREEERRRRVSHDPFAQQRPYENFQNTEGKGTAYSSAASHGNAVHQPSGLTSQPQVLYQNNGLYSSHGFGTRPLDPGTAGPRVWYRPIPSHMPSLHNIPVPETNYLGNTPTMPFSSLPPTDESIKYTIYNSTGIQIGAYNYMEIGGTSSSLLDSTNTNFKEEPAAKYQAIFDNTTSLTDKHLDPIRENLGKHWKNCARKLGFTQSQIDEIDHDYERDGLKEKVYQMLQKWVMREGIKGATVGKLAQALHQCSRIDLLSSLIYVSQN

[4] = target: hRIPK3 (Homo sapiens, UniProt Q9Y572); assay: In vitro RIPK3 kinase activity assay; type: biochemical
[5] = PK study in mice; type: in vivo; conditions: male, ICR, mouse, plasma
[6] = target: TEL-TRKA fusion (Homo sapiens, UniProt P04629+P41212); assay: Anti-proliferation in engineered Ba/F3 cells dependent on TEL-TRKA; type: cell-based; conditions: read-out: IC50 anti-proliferative effect, TEL-TRKA Ba/F3; 72 h
[7] = Cytotoxicity at high concentrations in cell viability assays; type: cell-based
[8] = target: T2, CYP2C8 (Homo sapiens, UniProt P10632); assay: CYP450 inhibition; type: in vitro ADME
T2 sequence (P10632 1-490): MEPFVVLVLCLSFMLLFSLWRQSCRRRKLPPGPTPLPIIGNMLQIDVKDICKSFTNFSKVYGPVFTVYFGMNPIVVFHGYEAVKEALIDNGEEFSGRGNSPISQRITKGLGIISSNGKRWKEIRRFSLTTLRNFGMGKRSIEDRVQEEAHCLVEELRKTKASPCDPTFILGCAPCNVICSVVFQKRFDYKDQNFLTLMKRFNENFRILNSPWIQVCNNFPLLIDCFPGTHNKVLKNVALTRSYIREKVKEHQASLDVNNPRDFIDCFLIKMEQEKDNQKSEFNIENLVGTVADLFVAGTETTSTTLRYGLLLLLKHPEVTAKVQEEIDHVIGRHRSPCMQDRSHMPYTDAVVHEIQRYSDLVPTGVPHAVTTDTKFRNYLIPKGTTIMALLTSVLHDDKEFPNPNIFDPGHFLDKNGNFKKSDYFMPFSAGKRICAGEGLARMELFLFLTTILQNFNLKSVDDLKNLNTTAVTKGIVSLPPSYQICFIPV

[9] = test system: phosphorylation of RIPK1, RIPK3 and MLKL; assay: Western blotting of necroptotic signaling in L929 cells; type: cell-based, mouse
[10] = Metabolic stability in mouse liver microsomes; type: in vitro ADME
[11] = Metabolic stability in human liver microsomes; type: in vitro ADME
[12] = read-out: EC50 FADD−/− Jurkat T + S
[13] = read-out: EC50 FADD−/− Jurkat TNFα

hRIPK3, sequence (Q9Y572 whole entry): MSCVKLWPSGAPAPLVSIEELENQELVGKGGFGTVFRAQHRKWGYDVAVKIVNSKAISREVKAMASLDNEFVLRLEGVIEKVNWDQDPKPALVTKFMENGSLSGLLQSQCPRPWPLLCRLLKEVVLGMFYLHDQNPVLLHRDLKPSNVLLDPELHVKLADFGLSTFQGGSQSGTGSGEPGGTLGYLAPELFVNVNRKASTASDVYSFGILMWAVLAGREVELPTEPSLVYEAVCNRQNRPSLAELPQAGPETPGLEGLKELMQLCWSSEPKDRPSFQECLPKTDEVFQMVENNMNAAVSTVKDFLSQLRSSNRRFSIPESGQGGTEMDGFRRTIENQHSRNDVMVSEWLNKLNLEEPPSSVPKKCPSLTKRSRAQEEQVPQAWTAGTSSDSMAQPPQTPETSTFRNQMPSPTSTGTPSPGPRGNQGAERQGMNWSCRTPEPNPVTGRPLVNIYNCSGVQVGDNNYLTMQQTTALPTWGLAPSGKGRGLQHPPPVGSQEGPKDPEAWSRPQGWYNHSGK
TEL-TRKA fusion, sequence (P04629 510-781 limits assumed, one chain of several): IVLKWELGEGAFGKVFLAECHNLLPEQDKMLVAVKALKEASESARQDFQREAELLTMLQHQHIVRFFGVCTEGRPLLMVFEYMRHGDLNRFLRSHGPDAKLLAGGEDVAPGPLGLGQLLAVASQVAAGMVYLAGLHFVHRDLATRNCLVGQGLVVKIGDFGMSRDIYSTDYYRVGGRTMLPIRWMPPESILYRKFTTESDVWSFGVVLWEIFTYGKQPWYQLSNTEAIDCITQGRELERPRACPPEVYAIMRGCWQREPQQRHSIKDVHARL

`C[C@H](NC(=O)c1cnn(C)c1Cc1ccccc1)c1ccc(-n2cnc3c(N)ncnc32)cc1` [compound 54, (S)-N-(1-(4-(6-Amino-9H-purin-9-yl)phenyl)ethyl)-5-benzyl-1-methyl-1H-pyrazole-4-carboxamide] gave an EC50 [1, 12] of 0.3 nM, an EC50 [1, 13] of 0.08 nM and an EC50 ([2]; read-out: EC50 L929 T + S) of 0.6 nM. The EC50 ([2]; read-out: EC50 L929 TNFα) was 0.4 nM, the IC50 [3] was ~6 nM and the IC50 [4] was > 1000 nM. The AUC(0-inf) ([5]; iv, 1 mg/kg) was 672 ng·h/mL, the AUC(0-t) ([5]; iv, 1 mg/kg) was 659 ng·h/mL and the MRT inf ([5]; iv, 1 mg/kg) was 119 min. The Vd ([5]; iv, 1 mg/kg) was 2.98 L/kg, the clearance ([5]; iv, 1 mg/kg) was 25 mL/min/kg and the half-life ([5]; iv, 1 mg/kg) was 26.4 min. For the same compound, the AUC(0-inf) ([5]; po, 10 mg/kg) was 2480 ng·h/mL, the AUC(0-t) ([5]; po, 10 mg/kg) was 2440 ng·h/mL and the Cmax ([5]; po, 10 mg/kg) was 1200 ng/mL. For the same compound, the MRT inf ([5]; po, 10 mg/kg) was 183 min, the Tmax ([5]; po, 10 mg/kg) was 30 min and the bioavailability ([5]; po, 10 mg/kg) was 37%. The half-life ([5]; po, 10 mg/kg) was 54 min.
`C[C@@H](c1ccc(-n2cnc3c(N)ncnc32)cc1)N1Cc2nn(C)c(Cc3ccccc3)c2C1=O` [compound 63, (S)-5-(1-(4-(6-Amino-9H-purin-9-yl)phenyl)ethyl)-3-benzyl-2-methyl-5,6-dihydropyrrolo[3,4-c]pyrazol-4(2H)-one] gave an EC50 [1, 12] of 0.4 nM, an EC50 [1, 13] of 0.03 nM and an EC50 ([2]; read-out: EC50 L929 T + S) of 1.6 nM. The EC50 ([2]; read-out: EC50 L929 TNFα) was 0.3 nM, the IC50 [6] was > 1000 nM and the AUC(0-inf) ([5]; iv, 1 mg/kg) was 644 ng·h/mL. The AUC(0-t) ([5]; iv, 1 mg/kg) was 643 ng·h/mL, the MRT inf ([5]; iv, 1 mg/kg) was 58.2 min and the Vd ([5]; iv, 1 mg/kg) was 1.6 L/kg. The clearance ([5]; iv, 1 mg/kg) was 26.7 mL/min/kg, the half-life ([5]; iv, 1 mg/kg) was 36.6 min and the AUC(0-inf) ([5]; po, 10 mg/kg) was 1730 ng·h/mL. For the same compound, the AUC(0-t) ([5]; po, 10 mg/kg) was 1700 ng·h/mL, the Cmax ([5]; po, 10 mg/kg) was 714 ng/mL and the MRT inf ([5]; po, 10 mg/kg) was 165 min. It also gave a Tmax ([5]; po, 10 mg/kg) of 40.2 min, a bioavailability ([5]; po, 10 mg/kg) of 26.4% and a half-life ([5]; po, 10 mg/kg) of 63 min.
For `C[C@H](NC(=O)c1c(Cl)nn(C)c1Cc1ccccc1)c1ccc(-n2cnc3c(N)ncnc32)cc1` [compound 57], the EC50 [1, 12] was 0.3 nM, the EC50 [1, 13] was 0.09 nM and the EC50 ([2]; read-out: EC50 L929 T + S) was 0.4 nM. For the same compound, the EC50 ([2]; read-out: EC50 L929 TNFα) was 0.3 nM and the “cytotoxicity at high concentrations” value [7] was “increased cytotoxicity at higher concentrations”.
Compound `Cn1ncc(C(=O)NCc2ccc(-n3cnc4c(N)ncnc43)cc2)c1Cc1ccccc1` [compound 39, N-(4-(6-Amino-9H-purin-9-yl)benzyl)-5-benzyl-1-methyl-1H-pyrazole-4-carboxamide] has an EC50 [1, 12] of 1 nM, an EC50 [1, 13] of 0.04 nM and an EC50 ([2]; read-out: EC50 L929 T + S) of 3.6 nM. The EC50 ([2]; read-out: EC50 L929 TNFα) was 0.9 nM, the IC50 [3] was 9.5 nM and the IC50 [4] was > 1000 nM. For the same compound, the “inhibition of CYP2C8 (in words)” value [8] was “weakly inhibited CYP2C8”, the AUC(0-inf) ([5]; iv, 1 mg/kg) was 882 ng·h/mL and the AUC(0-t) ([5]; iv, 1 mg/kg) was 862 ng·h/mL. It also gave an MRT inf ([5]; iv, 1 mg/kg) of 125 min, a Vd ([5]; iv, 1 mg/kg) of 2.35 L/kg and a clearance ([5]; iv, 1 mg/kg) of 18.3 mL/min/kg. For the same compound, the half-life ([5]; iv, 1 mg/kg) was 48.6 min, the AUC(0-inf) ([5]; po, 10 mg/kg) was 2210 ng·h/mL and the AUC(0-t) ([5]; po, 10 mg/kg) was 2190 ng·h/mL. For the same compound, the Cmax ([5]; po, 10 mg/kg) was 1340 ng/mL, the MRT inf ([5]; po, 10 mg/kg) was 153 min and the Tmax ([5]; po, 10 mg/kg) was 19.8 min. The bioavailability ([5]; po, 10 mg/kg) was 25.4% and the half-life ([5]; po, 10 mg/kg) was 80.4 min.
For `C[C@H](NC(=O)c1nnn(C)c1Cc1ccccc1)c1ccc(-n2cnc3c(N)ncnc32)cc1` [compound 58], the EC50 [1, 12] was < 0.01 nM, the EC50 [1, 13] was < 0.01 nM and the EC50 ([2]; read-out: EC50 L929 T + S) was < 0.01 nM. The EC50 ([2]; read-out: EC50 L929 TNFα) was < 0.01 nM and the “cytotoxicity at high concentrations” value [7] was “increased cytotoxicity at higher concentrations”.
Compound `CN1C(=O)[C@@H](NC(=O)c2n[nH]c(Cc3ccccc3)n2)COc2ccccc21` [compound 2, GSK2982772, reference compound] has an EC50 [1, 12] of 3.9 nM, an EC50 [1, 13] of 0.5 nM and an EC50 ([2]; read-out: EC50 L929 T + S) of 8280 nM. The EC50 ([2]; read-out: EC50 L929 TNFα) was 1200 nM and the “phosphorylation cascade (Western blot), L929” value [9] was “inactive even at 1 μmol/L”.
`CNC(=O)c1ccc2c(c1)ncn2-c1ccc(CNC(=O)c2cc(Cc3ccccc3)n(C)n2)cc1` [compound 20, 1-(4-((5-Benzyl-1-methyl-1H-pyrazole-3-carboxamido)methyl)phenyl)-N-methyl-1H-benzo[d]imidazole-5-carboxamide] showed an EC50 [1, 12] of 44 nM, an EC50 [1, 13] of 5.1 nM and an EC50 ([2]; read-out: EC50 L929 TNFα) of 312 nM. The half-life [10] was ~40 min and the half-life [11] was ~40 min.
`Cn1nnc(C(=O)NCc2ccc(-n3cnc4c(N)ncnc43)cc2)c1Cc1ccccc1` [compound 49, N-(4-(6-Amino-9H-purin-9-yl)benzyl)-5-benzyl-1-methyl-1H-1,2,3-triazole-4-carboxamide] showed an EC50 [1, 12] of 0.5 nM, an EC50 [1, 13] of 0.06 nM and an EC50 ([2]; read-out: EC50 L929 T + S) of 0.06 nM. For the same compound, the EC50 ([2]; read-out: EC50 L929 TNFα) was 0.03 nM, the IC50 [3] was ~6 nM and the IC50 [4] was > 1000 nM. The “inhibition of CYP2C8 (in words)” value [8] was “weakly inhibited CYP2C8”, the AUC(0-inf) ([5]; iv, 1 mg/kg) was 1420 ng·h/mL and the AUC(0-t) ([5]; iv, 1 mg/kg) was 1240 ng·h/mL. It also gave an MRT inf ([5]; iv, 1 mg/kg) of 630 min, a Vd ([5]; iv, 1 mg/kg) of 6.98 L/kg and a clearance ([5]; iv, 1 mg/kg) of 11.7 mL/min/kg. For the same compound, the half-life ([5]; iv, 1 mg/kg) was 61.8 min, the AUC(0-inf) ([5]; po, 10 mg/kg) was 4330 ng·h/mL and the AUC(0-t) ([5]; po, 10 mg/kg) was 4110 ng·h/mL. The Cmax ([5]; po, 10 mg/kg) was 1220 ng/mL, the MRT inf ([5]; po, 10 mg/kg) was 345 min and the Tmax ([5]; po, 10 mg/kg) was 40.2 min. The bioavailability ([5]; po, 10 mg/kg) was 33.3% and the half-life ([5]; po, 10 mg/kg) was 99 min.
For `CNC(=O)c1ccc2c(c1)ncn2-c1ccc(CNC(=O)c2cnn(C)c2Cc2ccccc2)cc1` [compound 27], the EC50 [1, 12] was 5.2 nM, the EC50 [1, 13] was 0.5 nM and the EC50 ([2]; read-out: EC50 L929 T + S) was 77 nM. The EC50 ([2]; read-out: EC50 L929 TNFα) was 20 nM, the half-life [10] was ~40 min and the half-life [11] was ~40 min.
